Assay results taken from ChEMBL document CHEMBL5352415, “Discovery of new macrophage M2 polarization modulators as multiple sclerosis treatment agents that enable the inflammation microenvironment remodeling” (Eur J Med Chem, 2022).
The source made the active and inactive calls. The calls are words filed in the database; no cut-off is given here.

Key:
[1] = target: RAC-alpha serine/threonine-protein kinase (Homo sapiens, UniProt P31749); test: Inhibition of AKT1 (unknown origin); type: binding
[2] = Tmax in ICR mouse at 50 mg/kg, po measured upto 24 hrs by LC/MS analysis; type: ADME, organism-based; conditions: in vivo
[3] = Half-life in ICR mouse at 50 mg/kg, po measured upto 24 hrs by LC/MS analysis; type: ADME, organism-based; conditions: in vivo
[4] = Cmax in ICR mouse at 50 mg/kg, po measured upto 24 hrs by LC/MS analysis; type: ADME, organism-based; set-up: dose 50 mg/kg, time < 24 hrs, route po; conditions: in vivo
[5] = AUC(0 to infinity) in ICR mouse at 50 mg/kg, po measured upto 24 hrs by LC/MS analysis; type: ADME, organism-based; set-up: dose 50 mg/kg, time < 24 hrs, route po; conditions: in vivo
Mus musculus [6] = test: (§1) Anti-inflammatory activity in MOG (35 to 55 residues)/pertussis toxin-induced experimental autoimmune encephalomyelitis C57BL/6 mouse model assessed as decrease in disease progression by measuring cumulative score at 75 to 150 mg/kg, po administered once daily starting from day 7 to day 20; type: functional, organism-based; conditions: dose 75-150 mg/kg, time 14.0 day
Mus musculus [7] = test: Anti-inflammatory activity in MOG (35 to 55 residues)/pertussis toxin-induced experimental autoimmune encephalomyelitis C57BL/6 mouse model assessed as attenuation of demyelination in spinal cord at 75 to 150 mg/kg, po administered once daily starting from day 7 to day 20 by luxol fast blue staining based analysis; type: functional, organism-based; conditions: dose 75-150 mg/kg, time 14.0 day
Mus musculus [8] = test: as §1, with “M2 macrophage polarization” for “decrease in disease progression”, “increase in Arg1 mRNA expression in CNS” for “cumulative score”, “20 by qRT-PCR analysis” for “20”; type: functional, organism-based; conditions: dose 75-150 mg/kg, time 14.0 day
Mus musculus [9] = test: as §1, with “M2 macrophage polarization” for “decrease in disease progression”, “increase in Ym1 mRNA expression in CNS” for “cumulative score”, “20 by qRT-PCR analysis” for “20”; type: functional, organism-based; conditions: dose 75-150 mg/kg, time 14.0 day
Mus musculus [10] = test: (§2) Anti-inflammatory activity in MOG (35 to 55 residues)/pertussis toxin-induced experimental autoimmune encephalomyelitis C57BL/6 mouse model assessed as inhibition of M1 macrophage polarization by measuring decrease in Mcp1 mRNA expression in CNS administered orally once daily starting from day 7 to day 20 by qRT-PCR analysis; type: functional, organism-based; conditions: dose 75-150 mg/kg, route po, time 14.0 day
Mus musculus [11] = test: as §2, with “IL-6” for “Mcp1”, “CNS at 75 to 150 mg/kg, po” for “CNS”, “administered” for “administered orally”; type: functional, organism-based; conditions: dose 75-150 mg/kg, time 14.0 day
Mus musculus [12] = test: as §2, with “interferon-gamma” for “Mcp1”, “CNS at 75 to 150 mg/kg, po” for “CNS”, “administered” for “administered orally”; type: functional, organism-based; conditions: dose 75-150 mg/kg, time 14.0 day
Mus musculus [13] = test: as §1, with “F4/80+ CD86+ M1 macrophage in DLN” for “disease progression by measuring cumulative score”, “20 by flow cytometric analysis” for “20”; type: functional, organism-based; conditions: dose 75-150 mg/kg, time 14.0 day
Mus musculus [14] = test: (§3) Anti-inflammatory activity in MOG (35 to 55 residues)/pertussis toxin-induced experimental autoimmune encephalomyelitis C57BL/6 mouse model assessed as increase in F4/80+ CD206+ M2 macrophage in DLN at 75 to 150 mg/kg, po administered once daily starting from day 7 to day 20 by flow cytometric analysis; type: functional; conditions: dose 75-150 mg/kg, time 14 day
Mus musculus [15] = test: as §3, with “spleen” for “DLN”; type: functional; conditions: dose 75-150 mg/kg, time 14 day
Mus musculus [16] = test: (§4) Anti-inflammatory activity in MOG (35 to 55 residues)/pertussis toxin-induced experimental autoimmune encephalomyelitis C57BL/6 mouse model assessed as inhibition of CD4+ T cell differentiation by measuring reduction in Th1 (IFN-gamma+) cells in DLN administered orally once daily starting from day 7 to day 20 by flow cytometric analysis; type: functional, organism-based; conditions: dose 75-150 mg/kg, route po, time 14.0 day
Mus musculus [17] = test: as §3, with “T cell activation by measuring decrease” for “increase”, “CD44hi CD62Llo T cells” for “F4/80+ CD206+ M2 macrophage”; type: functional; set-up: scale not given: the % may be the effect or the level left; conditions: dose 75-150 mg/kg, time 14 day
Mus musculus [18] = test: (§5) Anti-inflammatory activity in MOG (35 to 55 residues)/pertussis toxin-induced experimental autoimmune encephalomyelitis C57BL/6 mouse model assessed as T cell activation by measuring decrease in CD44hi CD62Llo T cells in spleen at 75 to 150 mg/kg, po administered once daily starting from day 7 to day 20 by flow cytometric analysis; type: functional; set-up: scale not given: the % may be the effect or the level left; conditions: dose 75-150 mg/kg, time 14 day
Mus musculus [19] = test: as §5, with “increase” for “decrease”, “CD44lo CD62Lhi naive” for “CD44hi CD62Llo”; type: functional, organism-based; conditions: dose 75-150 mg/kg, time 14.0 day
Mus musculus [20] = test: as §4, with “Th17 (Il-4+)” for “Th1 (IFN-gamma+)”, “spleen” for “DLN”; type: functional, organism-based; conditions: dose 75-150 mg/kg, route po, time 14.0 day
[21] = Induction of M2 macrophage polarization in C57BL/6 mouse BMDM cells assessed as fold increase in Arg1 gene level at 1 uM incubated for 24 hrs by qRT-PCR analysis; type: functional
[22] = Induction of M2 macrophage polarization in C57BL/6 mouse BMDM cells assessed as fold increase in Ym1 gene level at 1 uM incubated for 24 hrs by qRT-PCR analysis; type: functional
[23] = Inhibition of M1 macrophage polarization in C57BL/6 mouse BMDM cells assessed as fold decrease in Inos gene level at 1 uM incubated for 24 hrs by qRT-PCR analysis (reference value: 1); type: functional
[24] = Inhibition of M1 macrophage polarization in C57BL/6 mouse BMDM cells assessed as fold change in IL-6 gene level at 1 uM incubated for 24 hrs by qRT-PCR analysis (reference value: 1); type: functional
[25] = Inhibition of M1 macrophage polarization in C57BL/6 mouse BMDM cells assessed as fold change in IL-1beta gene level at 1 uM incubated for 24 hrs by qRT-PCR analysis (reference value: 1); type: functional
[26] = Inhibition of LPS-induced M1 macrophage polarization in C57BL/6 mouse BMDM cells assessed as fold change in IL-6 gene level at 1 uM preincubated with LPS for 24 hrs followed by compound addition and measured after 24 hrs by qRT-PCR analysis (reference value: 36.05 +/- 10.74); type: functional
[27] = Inhibition of LPS-induced M1 macrophage polarization in C57BL/6 mouse BMDM cells assessed as fold change in IL-1beta gene level at 1 uM preincubated with LPS for 24 hrs followed by compound addition and measured after 24 hrs by qRT-PCR analysis (reference value: 44.88 +/- 1.99); type: functional
BMDM [28] = test: Inhibition of LPS-induced M1 macrophage polarization in C57BL/6 mouse BMDM cells assessed as decrease in Inos gene level preincubated with LPS for 24 hrs followed by compound addition and measured after 24 hrs by qRT-PCR analysis; type: functional, cell-based; conditions: dose 0.05-2 µM
BMDM [29] = test: Inhibition of LPS-induced M1 macrophage polarization in C57BL/6 mouse BMDM cells assessed as decrease in IFN-gamma level preincubated with LPS for 24 hrs followed by compound addition and measured after 24 hrs by qRT-PCR analysis; type: functional, cell-based; conditions: dose 0.05-2 µM
[30] = target: T1, RAC-alpha serine/threonine-protein kinase (Mus musculus, UniProt P31750); test: Inhibition of Akt phosphorylation at Ser473 in C57BL/6 mouse BMDM cells at 50 to 500 nM incubated for 24 hrs by Western blot analysis; type: cell-based; conditions: 0.5 µM, dose 50-500 nM
[31] = target: T1, RAC-alpha serine/threonine-protein kinase; test: Inhibition of LPS-induced Akt phosphorylation at Ser473 in C57BL/6 mouse BMDM cells at 50 to 500 nM incubated for 24 hrs by Western blot analysis; type: cell-based; conditions: 0.5 µM, dose 50-500 nM

T1 sequence (P31750 whole entry): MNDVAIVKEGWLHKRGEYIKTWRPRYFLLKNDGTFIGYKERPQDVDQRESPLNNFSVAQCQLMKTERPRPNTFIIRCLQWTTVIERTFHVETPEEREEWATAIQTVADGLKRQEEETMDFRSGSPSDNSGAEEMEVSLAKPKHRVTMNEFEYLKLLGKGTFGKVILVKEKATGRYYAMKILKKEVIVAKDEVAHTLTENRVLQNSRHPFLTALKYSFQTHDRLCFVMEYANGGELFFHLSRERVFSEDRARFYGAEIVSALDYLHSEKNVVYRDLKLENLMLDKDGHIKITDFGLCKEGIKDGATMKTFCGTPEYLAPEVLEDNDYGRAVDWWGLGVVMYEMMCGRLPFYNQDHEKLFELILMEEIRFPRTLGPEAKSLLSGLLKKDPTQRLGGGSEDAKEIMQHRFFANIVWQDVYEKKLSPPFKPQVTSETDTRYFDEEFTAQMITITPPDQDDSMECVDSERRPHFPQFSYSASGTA
Sequence of RAC-alpha serine/threonine-protein kinase (Homo sapiens, UniProt P31749) (P31749 whole entry): as the sequence (P31750 whole entry) above, with N2S, S50A, A100T, R112K, T117E, T389K, N410G, D415H counted along it

Structure (SMILES): Cl.Cn1ncc(Br)c1-c1ccc(C(=O)N[C@@H]2CNCC[C@H]2c2ccc(F)c(F)c2)cc1C1CC1
- IC50 [1]: 0.434 µM
- Tmax [2]: 4 h
- half-life [3]: 13.7 h
- Cmax [4]: 1.99 µg/mL
- AUC(0-inf) [5]: 27.9 µg·h/mL
- Activity (Mus musculus [6]): Active
- Activity (Mus musculus [7]): Active
- Activity (Mus musculus [8]): Active
- Activity (Mus musculus [9]): Active
- Activity (Mus musculus [10]): Dose-Dependent Effect
- Activity (Mus musculus [11]): Active
- Activity (Mus musculus [12]): Active
- Activity (Mus musculus [13]): Active
- Activity (Mus musculus [14]): 10.6%
- Activity (Mus musculus [15]): 12.4%
- Activity (Mus musculus [16]): Dose-Dependent Effect
- Activity (Mus musculus [17]): 29%
- Activity (Mus musculus [18]): 19%
- Activity (Mus musculus [19]): Active
- Activity (Mus musculus [20]): Dose-Dependent Effect
- fold change (FC) [21]: 10.28
- fold change (FC) [22]: 14.31
- fold change (FC) [23]: 0.49
- fold change (FC) [24]: 2.22
- fold change (FC) [25]: 4.15
- fold change (FC) [26]: 69.99
- fold change (FC) [27]: 71.77
- inhibition (BMDM [28]): Dose-Dependent Effect
- inhibition (BMDM [29]): Dose-Dependent Effect
- inhibition (INH) [30]: Not Active
- inhibition (INH) [31]: Not Active
